Common to all, as to type: functional
The test system of assay [1] is Mus musculus. Kind of assay: In vivo inhibition of NAMPT in human NCI-H1155 cells xenografted in Harlan nude mouse assessed as NAD+ level per mg of tissue at 5 mg/kg, po bid measured 7 hrs post second dose by LC-MS analysis (reference value: 20.08 to 57.97 pmol).
Assay [2] deals with Mus musculus. Briefly: In vivo inhibition of NAMPT in human A2780 cells xenografted in Harlan nude mouse assessed as NAD+ level per mg of tissue at 5 mg/kg, po bid measured 7 hrs post second dose by LC-MS analysis (reference value: 55.03 to 56.3 pmol). In general terms: A xenograft is tissue or cells of one species grown in another, often human tumour cells in immunodeficient mice.

For assay [3], the system named is Mus musculus. Briefly: In vivo inhibition of NAMPT in human A2780 cells xenografted in Harlan nude mouse assessed as NAD+ level per mg of tissue at 10 mg/kg, po bid measured 7 hrs post second dose by LC-MS analysis (reference value: 55.03 to 56.3 pmol).
In assay [4] the test system is Mus musculus. Kind of assay: In vivo inhibition of NAMPT in human NCI-H1155 cells xenografted in Harlan nude mouse assessed as NAD+ level per mg of tissue at 10 mg/kg, po bid measured 7 hrs post second dose by LC-MS analysis (reference value: 20.08 to 57.97 pmol).
The test system of assay [5] is Mus musculus. Kind of assay: In vivo inhibition of NAMPT in human NCI-H1155 cells xenografted in Harlan nude mouse assessed as NAD+ level per mg of tissue at 20 mg/kg, po bid measured 7 hrs post second dose by LC-MS analysis (reference value: 20.08 to 57.97 pmol).
The subject of assay [6] is Mus musculus. Briefly: In vivo inhibition of NAMPT in human A2780 cells xenografted in Harlan nude mouse assessed as NAD+ level per mg of tissue at 20 mg/kg, po bid measured 7 hrs post second dose by LC-MS analysis (reference value: 55.03 to 56.3 pmol).
Assay [7] has as its system Mus musculus. Briefly: In vivo inhibition of NAMPT in human A2780 cells xenografted in Harlan nude mouse assessed as NAD+ level per mg of tissue at 32 mg/kg, po bid measured 7 hrs post second dose by LC-MS analysis (reference value: 55.03 to 56.3 pmol).
Assay [8] concerns Mus musculus. Briefly: In vivo inhibition of NAMPT in human NCI-H1155 cells xenografted in Harlan nude mouse assessed as NAD+ level per mg of tissue at 8 mg/kg, po bid measured 7 hrs post second dose by LC-MS analysis (reference value: 20.08 to 57.97 pmol).
For assay [9], the system named is Mus musculus. Kind of assay: In vivo inhibition of NAMPT in human NCI-H1155 cells xenografted in Harlan nude mouse assessed as NAD+ level per mg of tissue at 16 mg/kg, po bid measured 7 hrs post second dose by LC-MS analysis (reference value: 20.08 to 57.97 pmol).
The test system of assay [10] is Mus musculus. Kind of assay: In vivo inhibition of NAMPT in human NCI-H1155 cells xenografted in Harlan nude mouse assessed as NAD+ level per mg of tissue at 32 mg/kg, po bid measured 7 hrs post second dose by LC-MS analysis (reference value: 20.08 to 57.97 pmol).
In assay [11] the test system is Mus musculus. Kind of assay: In vivo inhibition of NAMPT in human A2780 cells xenografted in Harlan nude mouse assessed as NAD+ level per mg of tissue at 8 mg/kg, po bid measured 7 hrs post second dose by LC-MS analysis (reference value: 55.03 to 56.3 pmol).
Assay [12] has as its system Mus musculus. Kind of assay: In vivo inhibition of NAMPT in human A2780 cells xenografted in Harlan nude mouse assessed as NAD+ level per mg of tissue at 16 mg/kg, po bid measured 7 hrs post second dose by LC-MS analysis (reference value: 55.03 to 56.3 pmol).

Data on two compounds can be found in ChEMBL document CHEMBL3585268, “Treatment of Cancer with NAMPT Inhibitors” (2015).

With `CC(C)(O)CS(=O)(=O)Nc1ccc2c(c1)CCN(C(=O)COc1cccnc1)C2`, the Activity is 7.48 pmol in the assay with Mus musculus [1]; 5.04 pmol in the assay on Mus musculus [2]; 2.55 pmol in the assay on Mus musculus [3]; 3.63 pmol with Mus musculus [4]; 1.82 pmol with Mus musculus [5]; 3.29 pmol with Mus musculus [6].

Regarding `COCCS(=O)(=O)Nc1ccc2c(c1)CCN(C(=O)COc1cccnc1)C2`, the Activity is 6.38 pmol in the assay with Mus musculus [7]; 5.19 pmol in the assay with Mus musculus [8]; 1.98 pmol in the assay with Mus musculus [9]; 0.84 pmol with Mus musculus [10]; 3.97 pmol in the assay with Mus musculus [11]; 6.52 pmol with Mus musculus [12].
